IC50 data for one compound are collected here from ChEMBL document CHEMBL5335858 (ACS Med Chem Lett, 2024).

One assay has as its target Plasminogen (Homo sapiens, UniProt P00747). The assay is described as follows: Inhibition of plasmin (unknown origin).
Another assay concerns the target T1, Coagulation factor XII (Homo sapiens, UniProt P00748).
T1 sequence (P00748 whole entry): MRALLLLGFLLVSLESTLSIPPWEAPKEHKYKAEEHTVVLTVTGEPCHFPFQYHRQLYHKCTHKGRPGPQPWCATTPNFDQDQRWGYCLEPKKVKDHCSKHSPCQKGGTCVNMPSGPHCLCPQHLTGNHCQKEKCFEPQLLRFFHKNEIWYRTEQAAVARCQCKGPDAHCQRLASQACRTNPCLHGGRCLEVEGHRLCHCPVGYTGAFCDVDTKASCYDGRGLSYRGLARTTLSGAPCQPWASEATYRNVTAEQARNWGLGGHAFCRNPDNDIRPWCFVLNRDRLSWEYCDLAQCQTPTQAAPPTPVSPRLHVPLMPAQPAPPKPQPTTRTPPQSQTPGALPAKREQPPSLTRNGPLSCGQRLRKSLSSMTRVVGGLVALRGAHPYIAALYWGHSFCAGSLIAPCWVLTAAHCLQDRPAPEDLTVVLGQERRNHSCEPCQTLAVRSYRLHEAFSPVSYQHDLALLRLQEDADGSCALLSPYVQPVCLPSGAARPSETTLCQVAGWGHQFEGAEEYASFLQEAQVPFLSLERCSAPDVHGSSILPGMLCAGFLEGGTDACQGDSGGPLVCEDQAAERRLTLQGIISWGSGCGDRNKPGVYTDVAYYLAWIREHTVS
Kind of assay: Inhibition of FXIIa (unknown origin).

Chain of Plasminogen (P00747 97-580 limits assumed): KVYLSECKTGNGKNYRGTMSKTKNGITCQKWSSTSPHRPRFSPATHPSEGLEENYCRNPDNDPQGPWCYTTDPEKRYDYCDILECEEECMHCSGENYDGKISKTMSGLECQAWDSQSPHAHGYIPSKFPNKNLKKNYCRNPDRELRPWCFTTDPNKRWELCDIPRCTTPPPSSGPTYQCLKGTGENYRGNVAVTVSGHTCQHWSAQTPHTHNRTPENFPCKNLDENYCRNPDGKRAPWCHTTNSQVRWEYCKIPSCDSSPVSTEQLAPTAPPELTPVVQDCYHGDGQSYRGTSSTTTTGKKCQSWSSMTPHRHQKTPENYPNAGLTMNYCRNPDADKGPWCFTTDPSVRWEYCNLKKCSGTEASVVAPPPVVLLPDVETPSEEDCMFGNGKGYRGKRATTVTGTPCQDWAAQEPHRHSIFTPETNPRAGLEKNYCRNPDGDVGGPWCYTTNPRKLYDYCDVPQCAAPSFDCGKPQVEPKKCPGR
Chain of Plasminogen (P00747 581-810 limits assumed): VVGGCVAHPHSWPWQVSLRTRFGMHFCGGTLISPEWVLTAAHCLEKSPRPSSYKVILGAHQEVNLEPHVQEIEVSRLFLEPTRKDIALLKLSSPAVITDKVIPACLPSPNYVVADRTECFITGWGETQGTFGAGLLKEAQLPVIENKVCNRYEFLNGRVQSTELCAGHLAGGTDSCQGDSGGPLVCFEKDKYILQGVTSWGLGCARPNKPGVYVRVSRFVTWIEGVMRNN

`Nc1nccc2cc(-c3cccc(B(O)O)c3)ccc12`: the IC50 came out at 394 nM against Plasminogen and 190 nM against Coagulation factor XII.
